Measured values: PubChem BioAssay (NCI)
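Where inhibition never reached the appropriate level, the endpoint shown equals the highest concentration tested. Otherwise, values were interpolated linearly from a five-concentration, 48-hour dose response in 96-well plates. The concentration for full growth arrest is given as TGI.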

Legend:
Assay in all cases: NCI anticancer screen, dose series, 48 h
SNB-75 CNS = tested on: SNB-75 CNS
NCI-H522 lung = tested on: NCI-H522 lung
SK-MEL-2 melanoma = tested on: SK-MEL-2 melanoma
UACC-257 melanoma = tested on: UACC-257 melanoma
T-47D breast = tested on: T-47D breast
SR leukemia = tested on: SR leukemia
NCI-H460 lung = tested on: NCI-H460 lung
ACHN renal = tested on: ACHN renal
MOLT-4 leukemia = tested on: MOLT-4 leukemia
HS 578T breast = tested on: HS 578T breast
KM12 colon = tested on: KM12 colon
SF-539 CNS = tested on: SF-539 CNS
MCF7 breast = tested on: MCF7 breast
CAKI-1 renal = tested on: CAKI-1 renal
RPMI-8226 leukemia = tested on: RPMI-8226 leukemia
786-0 renal = tested on: 786-0 renal
K-562 leukemia = tested on: K-562 leukemia
MDA-N = tested on: MDA-N
UACC-62 melanoma = tested on: UACC-62 melanoma
A549 NSCLC = tested on: A549 NSCLC
SNB-19 CNS = tested on: SNB-19 CNS
CCRF-CEM leukemia = tested on: CCRF-CEM leukemia
EKVX NSCLC = tested on: EKVX NSCLC
MDA-MB-435 = tested on: MDA-MB-435
SW-620 colon = tested on: SW-620 colon
HCT-116 colon = tested on: HCT-116 colon
TK-10 renal = tested on: TK-10 renal
SF-268 CNS = tested on: SF-268 CNS
LOX IMVI melanoma = tested on: LOX IMVI melanoma
NCI-H23 lung = tested on: NCI-H23 lung
COLO 205 colon = tested on: COLO 205 colon
PC-3 prostate = tested on: PC-3 prostate
SK-MEL-28 melanoma = tested on: SK-MEL-28 melanoma
HCC-2998 colon = tested on: HCC-2998 colon
M14 melanoma = tested on: M14 melanoma
SK-MEL-5 melanoma = tested on: SK-MEL-5 melanoma
OVCAR-8 ovarian = tested on: OVCAR-8 ovarian
OVCAR-5 ovarian = tested on: OVCAR-5 ovarian
HCT-15 colon = tested on: HCT-15 colon
OVCAR-3 ovarian = tested on: OVCAR-3 ovarian
HOP-62 NSCLC = tested on: HOP-62 NSCLC
SF-295 CNS = tested on: SF-295 CNS
SN12C renal = tested on: SN12C renal
UO-31 renal = tested on: UO-31 renal
NCI/ADR-RES ovarian = tested on: NCI/ADR-RES ovarian
DU-145 prostate = tested on: DU-145 prostate
HT29 colon = tested on: HT29 colon
IGROV1 ovarian = tested on: IGROV1 ovarian

CC1C(c2ccc(Cl)cc2)c2cc3c(cc2OC1N1CCOCC1)OCO3 (stereo not drawn)
TGI (SNB-75 CNS): > 100 µM | TGI (NCI-H522 lung): > 100 µM | TGI (SK-MEL-2 melanoma): > 100 µM | TGI (UACC-257 melanoma): > 100 µM | TGI (T-47D breast): > 100 µM | TGI (SR leukemia): 17.9 µM | TGI (NCI-H460 lung): > 100 µM | TGI (ACHN renal): > 100 µM | TGI (MOLT-4 leukemia): > 100 µM | TGI (HS 578T breast): 70.4 µM | TGI (KM12 colon): > 100 µM | TGI (SF-539 CNS): > 100 µM | TGI (MCF7 breast): > 100 µM | TGI (CAKI-1 renal): 71.5 µM | TGI (RPMI-8226 leukemia): > 100 µM | TGI (786-0 renal): > 100 µM | TGI (K-562 leukemia): > 100 µM | TGI (MDA-N): > 100 µM | TGI (UACC-62 melanoma): > 100 µM | TGI (A549 NSCLC): > 100 µM | TGI (SNB-19 CNS): > 100 µM | TGI (CCRF-CEM leukemia): > 100 µM | TGI (EKVX NSCLC): > 100 µM | TGI (MDA-MB-435): > 100 µM | TGI (SW-620 colon): > 100 µM | TGI (HCT-116 colon): > 100 µM | TGI (TK-10 renal): > 100 µM | TGI (SF-268 CNS): > 100 µM | TGI (LOX IMVI melanoma): > 100 µM | TGI (NCI-H23 lung): > 100 µM | TGI (COLO 205 colon): > 100 µM | TGI (PC-3 prostate): > 100 µM | TGI (SK-MEL-28 melanoma): > 100 µM | TGI (HCC-2998 colon): > 100 µM | TGI (M14 melanoma): > 100 µM | TGI (SK-MEL-5 melanoma): > 100 µM | TGI (OVCAR-8 ovarian): > 100 µM | TGI (OVCAR-5 ovarian): > 100 µM | TGI (HCT-15 colon): > 100 µM | TGI (OVCAR-3 ovarian): > 100 µM | TGI (HOP-62 NSCLC): > 100 µM | TGI (SF-295 CNS): > 100 µM | TGI (SN12C renal): > 100 µM | TGI (UO-31 renal): > 100 µM | TGI (NCI/ADR-RES ovarian): > 100 µM | TGI (DU-145 prostate): > 100 µM | TGI (HT29 colon): > 100 µM | TGI (IGROV1 ovarian): > 100 µM
